# Read-outs that look alike come from different tables or passages of the source.
# What was measured:
# [1] = target: T1, alcohol dehydrogenase (ADH) (Saccharomyces cerevisiae, UniProt P00330); assay: ADH kinetic assay, spectrophotometric reduction of NAD+ at 340 nm; type: biochemical, Bakers Yeast
# T1 construct: 10 μl of ADH from Bakers Yeast; host or cells: baker's yeast
# T1 sequence (P00330 1-348): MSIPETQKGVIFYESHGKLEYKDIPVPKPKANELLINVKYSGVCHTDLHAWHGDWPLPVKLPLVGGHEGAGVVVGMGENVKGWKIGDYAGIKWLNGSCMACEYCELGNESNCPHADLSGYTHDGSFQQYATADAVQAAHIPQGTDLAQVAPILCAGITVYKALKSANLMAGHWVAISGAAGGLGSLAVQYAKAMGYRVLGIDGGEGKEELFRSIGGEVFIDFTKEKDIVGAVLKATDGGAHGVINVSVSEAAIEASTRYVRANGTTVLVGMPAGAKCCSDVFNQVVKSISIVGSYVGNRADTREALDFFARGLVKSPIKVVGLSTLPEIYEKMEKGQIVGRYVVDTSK
# Protocol: For ADH analysis, the compounds were screened using a kinetic protocol that spectrophotometrically evaluates reduction of NAD+.
# (§1) Stock solutions of each of the reagents were prepared in the following concentrations. Dilutions of the stock solutions were prepared prior to running the assay in the concentrations indicated below.
# The ADH reaction was monitored at 340 nm prior to and after addition of the inhibitor to detect background reaction with the inhibitor. Solutions of 100 μl of the inhibitors in DMSO were prepared to provide a final DMSO concentration of 5% of the total assay volume. These solutions were incubated for 6 minutes at 25° C. in a 990 μl of a solution containing 0.1 M HEPES, pH 8.0, 80 μM NAD+, and 130 mM of ethanol. The reaction was then initiated with 10 μl of ADH from Bakers Yeast ([…]; 1:400 dilution of 1.0 mg/ml). After the enzyme was added, the solution was mixed for 20 seconds, and the reaction was run for 10 minutes. After a 50 second lag, the samples were read in a Cary spectrophotometer at 340 nm. Reading of the samples was continued until 300 seconds. Cuvette #1 contained the control reaction (no inhibitor), and cuvette #2 contained the positive control reaction in which Cibacron Blue at 15.5 μM was substituted for inhibitor to yield 50 to 60% inhibition. The substrate was kept at a level at least 10 times the Km. The final concentration of […] was about 2.5 mM.
# Where only a simple read was desired, as in the case of NAD+ concentration determination, 13 μl (10 M stock) of ethanol was used to drive the reaction, and 10 μl of pure enzyme (1 mg/ml) was used. NAD+was soluble at 2 mM, which allowed the concentration determination step to be skipped. In this situation, the procedure was as follows. All of the ingredients except for the enzyme were mixed together. The solution was mixed well and the absorbance at 340 nm read. The enzyme was added and read again at OD 340 after the absorbance stopped changing, generally 10 to 15 minutes after the enzyme was added.
# [2] = target: glyceraldehyde-3-phosphate dehydrogenase (GAPDH) (Escherichia coli, UniProt P0A9B2); assay: GAPDH kinetic assay, spectrophotometric reduction of NAD+ at 340 nm; type: biochemical, E. coli
# Sequence of glyceraldehyde-3-phosphate dehydrogenase (GAPDH) (P0A9B2 whole entry): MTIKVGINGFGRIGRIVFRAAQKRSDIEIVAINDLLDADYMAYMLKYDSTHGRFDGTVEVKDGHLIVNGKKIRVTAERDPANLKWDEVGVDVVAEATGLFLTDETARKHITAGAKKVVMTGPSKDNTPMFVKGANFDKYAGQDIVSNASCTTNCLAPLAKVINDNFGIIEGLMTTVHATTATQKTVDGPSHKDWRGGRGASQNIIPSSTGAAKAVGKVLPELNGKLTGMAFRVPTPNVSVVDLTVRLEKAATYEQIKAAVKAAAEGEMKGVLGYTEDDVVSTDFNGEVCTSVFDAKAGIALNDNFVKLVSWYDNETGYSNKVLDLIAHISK
# Protocol: For GAPDH analysis, the compounds were screened using a kinetic protocol that spectrophotometrically evaluates reduction of NAD+.
# as §1
# The GAPDH reaction was monitored at 340 nm prior to and after addition of the inhibitor to detect background reaction with the inhibitor. Solutions of 100 μl of the inhibitors incubated for 6 minutes at 25° C. in a 990 μl of a solution containing 125 mM triethanolamine, pH 7.5, 145 μM glyceraldehyde 3-phosphate (GAP), 0.211 mM NAD, 5 mM sodium arsenate, and 3 mM β-metcaptoethanol (2-BME). The reaction was then initiated with 10 gl of E. coli GAPDH (1:200 dilution of 1.0 mg/ml). After the enzyme was added, the solution was mixed for 20 seconds, and the reaction was run for 10 minutes. After a 50 second lag, the samples were read in a Cary spectrophotometer at 340 nm. Reading of the samples was continued until 300 seconds. The final concentration of DMSO in a cuvette was about 5% of the total assay volume. Cuvette #1 contained the control reaction (no inhibitor).
# GAP for use in this experiment was deprotected from the diethyl acetal in the following manner. Water was boiled in recrystallizing dish. […]
# [3] = target: inosine-5′-monophosphate dehydrogenase (IMPDH); assay: IMPDH kinetic assay, spectrophotometric reduction of NAD+ at 340 nm; type: biochemical; details: Example 13 oxidoreductase panel (FIG. 7)
# Protocol: For IMPDH analysis, the compounds were screened using a kinetic protocol that spectrophotometrically evaluates reduction of NAD+.
# as §1
# The IMPDH reaction was monitored at 340 nm prior to and after addition of the inhibitor to detect background reaction with the inhibitor. Solutions of 100 μl of the inhibitors in DMSO were prepared to provide a final DMSO concentration of 5% of the total assay volume. These solutions were incubated for 6 minutes at 37° C. in a 992 μl of a solution containing 0.1 M Tris-HCl, pH 8.0, 0.25 M KCl, 0.3% glycerol, 30 μM NAD+, and 600 μM IMP (inosine monophosphate). The reaction was then initiated with 8 μl of IMPDH (0.75 μg/ml). After the enzyme was added, the solution was mixed for 20 seconds, and the reaction was run for 10 minutes. After a 50 second lag, the samples were read in a Cary spectrophotometer at 340 nm. Reading of the samples was continued until 300 seconds. Cuvette #1 contained the control reaction (no inhibitor), and cuvette #2 contained the positive control reaction in which Cibacron Blue was substituted for inhibitor. The substrate was kept at a level at least 10 times the Km.
Structure (SMILES),IC50 [1] [µM],"IC50 ([2]; Example 13 oxidoreductase panel (FIG. 7), read-out: IC50 for GAPDH) [µM]",IC50 [3] [µM],IC50 [2] [µM]
"O=C(O)c1ccc(-c2ccc(-c3nc4ccccc4[nH]3)o2)cc1 [compound 6b, 4-[5-(1H-benzoimidazol-2-yl)-furan-2-yl] benzoic acid]",49,> 60,22,
"O=C(O)c1ccc(-c2ccc(-c3nc4cc([N+](=O)[O-])ccc4[nH]3)o2)cc1 [compound 6d, 4-[5-(5-nitro-1H-benzoimidazol-2-yl)-furan-2-yl]-benzoic acid]",> 150,,15.8,> 150
